{"source": "patent US20090092642A1", "about": "“Skin and/or Hair Products, Containing Compounds With an Isoprenoid Structure” (BEIERSDORF AG, priority 2004, published 2009)", "tested_on": "primary normal human melanocytes", "assay": "Melanogenesis assay (14C-tyrosine incorporation) after 3 days of incubation with test substance", "assay_type": "cell-based", "conditions": "3 days incubation", "method": "(§1) A melanogenesis assay was carried out after 3 days of incubation of primary normal human melanocytes with test substance compared to control. The figures listed in the table give the melanogenesis rates (measured as ^14C-tyrosine incorporation) based on the untreated control (=100%). It results from this that the melanogenesis, i.e., the process of melanine synthesis rises to 217%, 128% or 121%, when the melanocytes are cultivated in the presence of the (2E/Z,6E/Z)-3,7,11-trimethyldodeca-2,6,10-trienal (n=3).\nas §1, with “135%” for “217%, 128%”, “113%” for “121%,”, “N-[(1E/Z,2E/Z)-3,7-dimethylocta-2,6-dien-1-ylidene]butane-1-amine (n=2).” for “(2E/Z,6E/Z)-3,7,11-trimethyldodeca-2,6,10-trienal (n=3).”\nas §1, with “137%” for “217%, 128%”, “127%” for “121%,”, “(2E/Z)-3,7-dimethylocta-2,6-dienal (n=2-6).” for “(2E/Z,6E/Z)-3,7,11-trimethyldodeca-2,6,10-trienal (n=3).”\nas §1, with “131%, 130%” for “217%, 128%”, “117%” for “121%,”, “(1E/Z,2E/Z)-3,7-dimethylocta-2,6-dienal oxime (n=2).” for “(2E/Z,6E/Z)-3,7,11-trimethyldodeca-2,6,10-trienal (n=3).”", "data": [{"smiles": "CC(C)=CCC/C(C)=C/CC/C(C)=C/C=O", "note": "[(2E/Z,6E/Z)-3,7,11-trimethyldodeca-2,6,10-trienal]", "values": [{"measurement": "melanogenesis rate (measured as 14C-tyrosine incorporation) based on the untreated control (=100%), X transverse", "setting": "0.1 μg/ml (first column so headed), n=3", "result": 128, "unit": "%"}, {"measurement": "melanogenesis rate (measured as 14C-tyrosine incorporation) based on the untreated control (=100%), X transverse", "setting": "0.1 μg/ml (second column so headed), n=3", "result": 121, "unit": "%"}, {"measurement": "melanogenesis rate (measured as 14C-tyrosine incorporation) based on the untreated control (=100%), X transverse", "setting": "1 μg/ml, n=3", "result": 217, "unit": "%"}]}, {"smiles": "CC(C)=CCC/C(C)=C/C=O", "note": "[(2E/Z)-3,7-dimethylocta-2,6-dienal]", "values": [{"measurement": "melanogenesis rate (measured as 14C-tyrosine incorporation) based on the untreated control (=100%), X transverse", "setting": "0.001 μg/ml, n=2-6", "result": 127, "unit": "%"}, {"measurement": "melanogenesis rate (measured as 14C-tyrosine incorporation) based on the untreated control (=100%), X transverse", "setting": "0.01 μg/ml, n=2-6", "result": 137, "unit": "%"}]}, {"smiles": "CCCC/N=C/C=C(\\C)CCC=C(C)C", "note": "[N-[(1E/Z,2E/Z)-3,7-dimethylocta-2,6-dien-1-ylidene]butane-1-amine]", "values": [{"measurement": "melanogenesis rate (measured as 14C-tyrosine incorporation) based on the untreated control (=100%), X transverse", "setting": "0.1 μg/ml, n=2", "result": 113, "unit": "%"}, {"measurement": "melanogenesis rate (measured as 14C-tyrosine incorporation) based on the untreated control (=100%), X transverse", "setting": "1 μg/ml, n=2", "result": 135, "unit": "%"}]}, {"smiles": "CC(C)=CCC/C(C)=C/C=N/O", "note": "[(1E/Z,2E/Z)-3,7-dimethylocta-2,6-dienal oxime]", "values": [{"measurement": "melanogenesis rate (measured as 14C-tyrosine incorporation) based on the untreated control (=100%), X transverse", "setting": "0.01 μg/ml, n=2", "result": 117, "unit": "%"}, {"measurement": "melanogenesis rate (measured as 14C-tyrosine incorporation) based on the untreated control (=100%), X transverse", "setting": "0.1 μg/ml, n=2", "result": 130, "unit": "%"}, {"measurement": "melanogenesis rate (measured as 14C-tyrosine incorporation) based on the untreated control (=100%), X transverse", "setting": "1 μg/ml, n=2", "result": 131, "unit": "%"}]}]}
